The source of these data is patent US9221868B2, “Uridine di- or tri-phosphate derivatives and uses thereof” (BAR-ILAN UNIVERSITY, priority 2010, dated 2015).

Each structure is given as a SMILES string.

One test concerns the target T1, P2Y6-R (Homo sapiens, UniProt Q15077).
T1 construct: expressed in transfected cells; host or cells: 1321N1 astrocytoma cells
Kind of test: [Ca2+]i increase in 1321N1 astrocytoma cells expressing P2Y6-R. The format is cell-based. The note with it: for EC50: 1321N1 astrocytoma cells, [Ca2+]i, read-out: Potencies (EC50) at the P2Y6-R. As to the method: Green fluorescent protein (GFP) constructs of human P2Y2-R, P2Y4-R and P2Y6-R were expressed in 1321N1 astrocytoma cells, which lack endogenous expression of P2X- and P2Y-receptors. The respective cDNA of the receptor gene was cloned into a pEGFPN1 vector. After transfection using FuGENE 6 Transfection Reagent (Roche Molecular Biochemicals, Mannheim, Germany), the cells were selected with 0.5 mg/ml G418 (geneticine; Merck Chemicals, Darmstadt, Germany) and grown in Dulbecco's modified Eagles' medium (DMEM) supplemented with 10% fetal calf serum, 100 U/ml penicillin and […] at 37° C. and 5% CO2. The expression and cell membrane localization of the respective P2Y receptors was confirmed through the analysis of the GFP fluorescence. The functionality of the expressed GFP-labeled receptor in cells was verified by recording a change of [Ca^2+]i after stimulation with the appropriate receptor agonist.
1321N1 astrocytoma cells transfected with the respective plasmid for P2YR-GFP expression plated on coverslips (22 mm diameter) and grown to approximately 80% density were incubated with 2 μM fura 2/AM and 0.02% pluronic acid in Na-HBS buffer (Hepes buffered saline: 145 mM NaCl, 5.4 mM KCl, 1.8 mM CaCl2, 1 mM MgCl2, 25 mM glucose, 20 mM Hepes/Tris pH 7.4) for 30 min at 37° C. The cells were superfused (1 ml/min, 37° C.) with different concentrations of nucleotide in Na-HBS buffer, and the nucleotide-induced change of [Ca^2+]i was measured by detecting the respective emission intensity of fura 2/AM at 510 nm with after 340 nm and 380 nm excitations (Ubl et al., 1998). The average maximal amplitude of the responses and the respective standard errors were calculated from the ratio of the fura 2/AM fluorescence intensities with excitations at 340 nm and 380 nm (only MT-labeled cells were analysed). Microsoft Excel (Microsoft Corp., Redmond, Wash., USA) and SigmaPlot (SPSS Inc., Chicago, Ill., USA) were used to derive the concentration-response curves and EC50 values from the average response amplitudes obtained in at least three independent experiments (Ecke et al., 2006, 2008). Only cells with a clear MT-signal and with the typical calcium response kinetics upon agonist pulse application were included in the data analysis. The GFP-tagged P2Y receptors are suitable for pharmacological and physiological studies, as previously reported (Tulapurkar et al., 2004, 2006; Zylberg et al., 2007).
1321N1 cell lines stably expressing the human P2Y6 receptors were grown as previously described in DMEM (5% FBS, 100 IU/ml penicillin, 100 μg/ml streptomycin, 1× Glutamax, 10 mM Hepes and 0.5 mg/ml G-418) at 37° C. in a humidified atmosphere containing 5% CO2 and 95% air (Gendron et al., 2003).
1321N1 cells (10×10^6 cells grown in 10 cm^2 dishes) were harvested by a brief trypsin/EDTA treatment, suspended in complete culture medium, and washed by centrifugation for 3 min at 100×g before being incubated with 1 μM Fluo 4/AM in 4.5 ml HBSS with Ca^2+ and Mg^2+ (Wisent, St. Bruno, QC) for 25 min at 37° C. Cells were washed by centrifugation (100×g, 3 min), suspended in HBSS containing Ca^2+ and Mg^2+, and incubated for 25 min at 37° C. Cells were washed and suspended in 16 ml of FIBSS containing Ca^+ and Mg^2+. Cell suspension (2 ml) was gently stirred in a quartz cuvette while [Ca^2+]i and monitored on a RF-5301 PC Shimadzu spectrofluorometer with Panormama fluorescence 1.1 software (Man-Tech, Guelph, ON). Excitation wavelengths of 488 nm and emission wavelength of 520 nm were used to measure changes in intracellular Fluo 4 fluorescence intensity (F). At the end of each recording, maximal fluorescence (Fmax) and minimal fluorescence (Fmin) were determined by adding successively 0.1% Triton X-100 and 50 mM EDTA to cell suspensions. The following equation from Grynkiewicz et al. (1985) was used to relate the fluorescence intensity to Ca^2+ levels: [Ca^2+]=Kd×(F−Fmin)/(Fmax−F), wherein Kd is the Ca^+ dissociation constant of the indicator (345 nM). […]

In test [1] the test system is intraocular pressure in normotense rabbits. Kind of test: Intraocular pressure (IOP) in normotense rabbits. The format is in vivo, New Zealand white rabbits. The note with it: for Reduction of IOP: applied to the cornea, 100 μM, 10 μl. As to the method: Twenty-four male New Zealand white rabbits (2.5±0.5 kg) were kept in individual cages with free access to food and water on controlled 12 h/12 h light/dark cycles. All the protocols used adhere to the Association for Research in Vision and Ophthalmology (ARVO) Statement for the Use of Animals in Ophthalmology and Vision Research and also are in accordance with the European Communities Council Directive (86/609/EEC).
Intraocular pressure (IOP) was measured by means of a TonoVET rebound tonometer supplied by Tiolat Oy (Helsinki, Finland). […] For single dose experiments, different analogues were applied unilaterally to the cornea at a concentration of 100 μM and a fixed volume of 10 μl. The contralateral eye received the same volume of saline solution (0.9% NaCl, vehicle). Two IOP measurements were taken before any analogue was instilled. Experiments were performed following a blinded design where no visible indication was given to the experimenter as to the nature of the applied solution. IOP was followed up to 8 h to study the time course of the effect. Some of the analogues were assayed over a range of doses from 1 nM to 100 μM to generate dose-response curves. For these experiments, […] was measured as the maximal response obtained with each dose of the analogue. Dose-response curves were calculated by plotting the IOP value for given concentration versus that concentration (from 1 nM to 100 μM). pD2 values were obtained by fitting the values to a dose-response-curve equation according to ORIGIN8.0 software. With the pD2 value it was possible to calculate the EC50 by multiplying by −1 and then take the antilogarithm. The obtained value is the EC50 expressed in molar concentration. In all experiments, on any given day, only a single dose was tested on a single animal, which was washed out at least 2 days between doses. […]
All data are presented as the means±s.e.m. Significant differences were determined by two-tailed Student's t-tests. […]

T1 sequence (Q15077 whole entry): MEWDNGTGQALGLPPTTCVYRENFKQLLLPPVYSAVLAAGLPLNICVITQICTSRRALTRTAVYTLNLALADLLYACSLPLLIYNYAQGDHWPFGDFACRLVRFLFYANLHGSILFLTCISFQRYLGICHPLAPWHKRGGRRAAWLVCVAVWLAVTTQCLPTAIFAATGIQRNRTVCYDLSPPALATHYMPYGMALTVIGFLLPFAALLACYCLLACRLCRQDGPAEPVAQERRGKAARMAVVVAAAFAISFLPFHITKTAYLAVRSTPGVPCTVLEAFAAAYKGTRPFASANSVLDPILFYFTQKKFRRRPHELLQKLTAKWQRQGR

On to `[BH3-][P+](O)(OCC1OC(n2cc(OC)c(=O)[nH]c2=O)C(O)C1O)OP(=O)(O)O` (single isomer, unassigned) [Analogue 13A, 5-methoxyuridine-5′-O-(α-boranodiphosphate)], for which the EC50 at P2Y6-R was 8 nM. Moreover, on P2Y6-R (ratio of EC50 values), the “Potency of A-isomer relative to the corresponding B-isomer at P2Y6-R” value is reported as “more than 500 fold”. Moreover, in test [1], the “Duration of action (IOP reduction)” value is listed as “about 4 h” and the “Reduction of IOP” value came out at 45%.

In the case of `COc1cn([C@@H]2O[C@H](COP(=O)(O)OP(=O)(O)O)[C@@H](O)[C@H]2O)c(=O)[nH]c1=O` [Analogue 12, 5-methoxyuridine diphosphate], in test [1], the “Reduction of IOP” value was found to be 31%.

As for `O=c1ccn([C@@H]2O[C@H](COP(=O)(O)OP(=O)(O)O)[C@@H](O)[C@H]2O)c(=O)[nH]1` [UDP, reference compound], at P2Y6-R, the EC50 came out at 150 nM.

One may read the EC50 as the concentration giving half of the maximal effect.
